Measured values reported in patent US8471021B2, “Sulfur containing heterocycle-fused naphthalene tetracarboxylic acid diimide derivatives, preparation method and use thereof” (Shanghai Institute Of Organic Chemistry, Chinese Academy Of …, priority 2009, dated 2013).

Key:
[1] = Cyclic voltammetry in dichloromethane; type: physicochemical; details: for LUMO energy level: calculated by equation (2), −(E1/2^red1+4.44); for half-wave potential E1/2^red1 / half-wave potential E1/2^red2: Bu4NPF6 0.1 M, 50 mV/s
Method: Cyclic voltammetry measurement was conducted by CHI610D electrochemical analyzer with computer control using a conventional tri-electrode system with platinum electrode as a working electrode, saturated calomel electrode (SCE) as a reference electrode, and platinum wire as a counter electrode. Samples were dissolved in freshly distilled dichloromethane to a molar concentration of 1×10^−3 M. Bu4NPF6 (0.1 M) was applied as a supporting electrolyte. The scan rate was 50 mV/s. Using saturated calomel as reference, taking the SCE energy level to be −4.44 eV below the vacuum level, the LUMO energies for the test material can be calculated by using the following equation for energy level: ELUMO=−(E1/2^red1+4.44) eV (2)

[2] = UV absorption spectrum in dichloromethane; type: physicochemical; details: for optical band gap: calculated by equation (1), 1240 nm/λonset
Method: UV absorption spectrum measurement was conducted using U-3900 spectrometer. Samples were dissolved in dichloromethane to a molar concentration of 1×10^−6M, the scanning scope was 800-200 nm, and the optical band gap of the compound was calculated according to the following equation, Egap^opt=1240 nm/λonset (1)

[3] = Solubility in common organic solvents at room temperature; type: physicochemical; details: for example chloroform, tetrahydrofuran
Text: The 21 exemplary compounds (1˜21) described above for the five classes of sulfur containing heterocycle fused naphthalenetetracarboxylic acid diimide derivatives are soluble in regular organic solvents, such as chloroform, toluene, chlorobenzene, dichlorobenzene, and the like.

[4] = Cyclic voltammetry in dichloromethane; type: physicochemical; details: calculated by equation (3), −(Ered^onset+4.4)

Structure (SMILES) | melting point | LUMO energy level [1] | half-wave potential E1/2^red1 ([1]; vs SCE, dichloromethane) | half-wave potential E1/2^red2 ([1]; vs SCE, dichloromethane) | optical band gap [2] | maximum UV absorption peak ([2]; dichloromethane, 1×10^−6M) | further results
CCCCCCCCCCCCC(CCCCCCCCCC)Cn1c(=O)c2c3sc(=C(C#N)C#N)sc3c3c(=O)n(CC(CCCCCCCCCC)CCCCCCCCCCCC)c(=O)c4c5sc(=C(C#N)C#N)sc5c(c1=O)c2c34 (stereo not shown) [Compound 1, N,N′-di(2-decyltetradecyl)-[2,3-d:6,7-d′]-bi[2-(1,3-dithiacyclopenten-2-ylidene)-2-malononitrile]-naphthalene-1,4,5,8-tetracarboxylic acid diimide] | 240 °C | −4.35 eV | −0.09 V | −0.63 V | 2.1 eV | around 573 nm | 
CCCCCCCCCCC(CCCCCCCC)Cn1c(=O)c2c3sc(=C(C#N)C#N)sc3c3c(=O)n(CC(CCCCCCCC)CCCCCCCCCC)c(=O)c4c5sc(=C(C#N)C#N)sc5c(c1=O)c2c34 (stereo not shown) [Compound 2, N,N′-di(2-octyldodecyl)-[2,3-d:6,7-d′]-bi[2-(1,3-dithiacyclopenten-2-ylidene)-2-malononitrile]-naphthalene-1,4,5,8-tetracarboxylic acid diimide] | 265 °C |  |  |  |  |  | 
CCCCCCCCC(CCCCCC)Cn1c(=O)c2c3sc(=C(C#N)C#N)sc3c3c(=O)n(CC(CCCCCC)CCCCCCCC)c(=O)c4c5sc(=C(C#N)C#N)sc5c(c1=O)c2c34 (stereo not shown) [Compound 3, N,N′-di(2-hexyldecyl)-[2,3-d:6,7-d′]-bi[2-(1,3-dithiacyclopenten-2-ylidene)-2-malononitrile]-naphthalene-1,4,5,8-tetracarboxylic acid diimide] | 317 to 319 °C |  |  |  |  |  | 
CCCCCCC(CCCCCC)Cn1c(=O)c2c3sc(=C(C#N)C#N)sc3c3c(=O)n(CC(CCCCCC)CCCCCC)c(=O)c4c5sc(=C(C#N)C#N)sc5c(c1=O)c2c34 [Compound 4, N,N′-di(2-hexyloctyl)-[2,3-d:6,7-d′]-bi[2-(1,3-dithiacyclopenten-2-ylidene)-2-malononitrile]-naphthalene-1,4,5,8-tetracarboxylic acid diimide] | 349 to 351 °C |  |  |  |  |  | 
CCCCCCC(CCCC)Cn1c(=O)c2c3sc(=C(C#N)C#N)sc3c3c(=O)n(CC(CCCC)CCCCCC)c(=O)c4c5sc(=C(C#N)C#N)sc5c(c1=O)c2c34 (stereo not shown) [Compound 5, N,N′-di(2-butyloctyl)-[2,3-d:6,7-d′]-bi[2-(1,3-dithiacyclopenten-2-ylidene)-2-malononitrile]-naphthalene-1,4,5,8-tetracarboxylic acid diimide] | 369 to 371 °C |  |  |  |  |  | 
CCCCC(CC)Cn1c(=O)c2c3sc(=C(C#N)C#N)sc3c3c(=O)n(CC(CC)CCCC)c(=O)c4c5sc(=C(C#N)C#N)sc5c(c1=O)c2c34 (stereo not shown) [Compound 6, N,N′-di(2-ethylhexyl)-[2,3-d:6,7-d′]-bi[2-(1,3-dithiacyclopenten-2-ylidene)-2-malononitrile]-naphthalene-1,4,5,8-tetracarboxylic acid diimide] |  |  |  |  |  |  | solubility [3]: relatively low solubility
CCCCCCCCn1c(=O)c2c3sc(=C(C#N)C#N)sc3c3c(=O)n(CCCCCCCC)c(=O)c4c5sc(=C(C#N)C#N)sc5c(c1=O)c2c34 [Compound 8, N,N′-di(n-octyl)-[2,3-d:6,7-d′]-bi[2-(1,3-dithiacyclopenten-2-ylidene)-2-malononitrile]-naphthalene-1,4,5,8-tetracarboxylic acid diimide] |  |  |  |  |  |  | solubility [3]: relatively low solubility

Second part, led by results:

melting point | LUMO energy level [1] | half-wave potential E1/2^red1 ([1]; vs SCE, dichloromethane) | half-wave potential E1/2^red2 ([1]; vs SCE, dichloromethane) | optical band gap [2] | maximum UV absorption peak ([2]; dichloromethane, 1×10^−6M) | Structure (SMILES) | further results
330 to 332 °C |  |  |  |  |  | CCCCCCCCC(CCCCCC)CCn1c(=O)c2c3sc(=C(C#N)C#N)sc3c3c(=O)n(CCC(CCCCCC)CCCCCCCC)c(=O)c4c5sc(=C(C#N)C#N)sc5c(c1=O)c2c34 (stereo not shown) [Compound 7, N,N′-di(3-hexylundecyl)-[2,3-d:6,7-d′]-bi[2-(1,3-dithiacyclopenten-2-ylidene)-2-malononitrile]-naphthalene-1,4,5,8-tetracarboxylic acid diimide] | 
 | −4.23 eV | −0.21 V | −0.68 V | 2.0 eV | around 581 nm | CCCCCCCCCCC(CCCCCCCC)Cn1c(=O)c2c3sc(=C(C#N)C(=O)OCC)sc3c3c(=O)n(CC(CCCCCCCC)CCCCCCCCCC)c(=O)c4c5sc(=C(C#N)C(=O)OCC)sc5c(c1=O)c2c34 (stereo not shown) [Compound 9, N,N′-di(2-octyldodecyl)-[2,3-d:6,7-d′]-bi[ethyl 2-(1,3-dithiacyclopenten-2-ylidene)-2-cyanoacetate]-naphthalene-1,4,5,8-tetracarboxylic acid diimide] | 
 |  | -0.81 V |  | 1.8 eV | around 655 nm | CCCCCCCCCCCCC(CCCCCCCCCC)Cn1c(=O)c2c3sc(=C(C#N)c4ccccc4)sc3c3c(=O)n(CC(CCCCCCCCCC)CCCCCCCCCCCC)c(=O)c4c5sc(=C(C#N)c6ccccc6)sc5c(c1=O)c2c34 (stereo not shown) [Compound 12, N,N′-di(2-decyltetradecyl)-[2,3-d:6,7-d′]-bi[2-(1,3-dithiacyclopenten-2-ylidene)-2-phenylacetonitrile]-naphthalene-1,4,5,8-tetracarboxylic acid diimide] | onset reduction potential Ered^onset ([1]; vs SCE, dichloromethane): −0.23 V; LUMO energy level [4]: −4.17 eV
 | −4.28 eV | −0.16 V | −0.64 V | 2.0 eV | around 550 nm | CCCCCCCCCCC(CCCCCCCC)Cn1c(=O)c2c3sc(C#N)c(C#N)sc3c3c(=O)n(CC(CCCCCCCC)CCCCCCCCCC)c(=O)c4c5sc(C#N)c(C#N)sc5c(c1=O)c2c34 (stereo not shown) [Compound 15, N,N′-di(2-octyl-dodecyl)-[2,3-d:6,7-d′]-bi[1,4-dithiacyclohexadiene-2,3-dicarbonitrile]-naphthalene-1,4,5,8-tetracarboxylic acid diimide] | 
 | −4.63 eV | 0.19 V | −0.40 V | 2.2 eV | 250˜318 nm | CCCCCCCCCCCCC(CCCCCCCCCC)CN1C(=O)c2c3sc(C#N)c(C#N)c3c3c4c(c5sc(C#N)c(C#N)c5c(c24)C1=O)C(=O)N(CC(CCCCCCCCCC)CCCCCCCCCCCC)C3=O (stereo not drawn) [Compound 18, N,N′-di(2-decyl-tetradecyl)-[2,3-d:6,7-d′]-bi[α,β-dicyanothiophene]-naphthalene-1,4,5,8-tetracarboxylic acid diimide] | end absorption peak ([2]; dichloromethane, 1×10^−6M): 545 nm
